The results in this text go back to PubChem BioAssay (NCI).

Among the test systems are EKVX NSCLC; 786-0 renal; SK-MEL-5 melanoma; SK-OV-3 ovarian; RXF 393 renal; LOX IMVI melanoma; MOLT-4 leukemia; RPMI-8226 leukemia; ACHN renal; PC-3 prostate.
Experiment in all cases: NCI tumour cell line growth inhibition, 48 h

SMILES strings stand for the structures. “And” between values parts separate entries of the source, which are not always exact repeats. Equal values may be shown once.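 Interpolation was linear, between the two tested concentrations surrounding the appropriate level; five concentrations were tested over 48 hours in 96-well plates. Abbreviation: GI50, concentration required for 50% inhibition of growth. TGI: concentration producing complete growth inhibition.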 Bounds are passed on as bounds.

As to `N#CCC1CCN(c2nc(Nc3ccc(N4CCC(O)CC4)cc3)c3c(=O)[nH]ncc3n2)CC1`, the GI50 in the assay on EKVX NSCLC was 1.85 µM; in the assay on 786-0 renal, 0.82 µM; in the assay with SK-MEL-5 melanoma, over 100 µM; in the assay on SK-OV-3 ovarian, 0.267 µM; with RXF 393 renal, 0.303 µM; with LOX IMVI melanoma, 0.489 µM. The GI50 in the assay on MOLT-4 leukemia was 0.652 µM; in the assay on RPMI-8226 leukemia, over 100 µM; in the assay with ACHN renal, 0.473 µM; in the assay with PC-3 prostate, over 100 µM. Besides, the TGI in the assay with EKVX NSCLC was over 100 µM; in the assay on 786-0 renal, over 100 µM; in the assay on SK-MEL-5 melanoma, over 100 µM; with SK-OV-3 ovarian, 1.88 µM; with RXF 393 renal it was 1.3 µM; in the assay on LOX IMVI melanoma it was over 100 µM. Further, the TGI in the assay on MOLT-4 leukemia, in the assay on RPMI-8226 leukemia, in the assay on ACHN renal and in the assay with PC-3 prostate was over 100 µM throughout.
On to `CCCN1CCCC(c2ccc(Nc3nc(Nc4cc(F)ccc4C(N)=O)c4cc[nH]c4n3)c(OC)c2)C1` (stereo unspecified), for which the GI50 with EKVX NSCLC is 0.862 µM; in the assay on 786-0 renal, 2.84 µM; with SK-MEL-5 melanoma it was 3.03 µM; with SK-OV-3 ovarian, 2.81 µM; in the assay with RXF 393 renal, 0.942 µM; in the assay on LOX IMVI melanoma, 0.588 µM. Further, the GI50 in the assay on MOLT-4 leukemia is 3.8 µM; in the assay on RPMI-8226 leukemia, 3.65 µM; in the assay on ACHN renal it was 2.92 µM; in the assay with PC-3 prostate, 4.17 µM. The TGI was 5.19 µM with EKVX NSCLC; 6.29 µM in the assay on 786-0 renal; 6.24 µM in the assay on SK-MEL-5 melanoma; 5.83 µM in the assay with SK-OV-3 ovarian; 4.48 µM in the assay with RXF 393 renal; 5.49 µM in the assay on LOX IMVI melanoma. In addition, the TGI in the assay on MOLT-4 leukemia stood at 11.1 µM; with RPMI-8226 leukemia, 10.8 µM; in the assay with ACHN renal, 6.23 µM; in the assay with PC-3 prostate, 9.6 µM.
Regarding `O=C(/C=C/c1ccccc1)c1ccccn1`, the TGI is 45.5 µM and 41 µM with EKVX NSCLC; 24.7 µM and 40.9 µM in the assay on 786-0 renal; 28.5 µM and 88.6 µM in the assay with SK-MEL-5 melanoma; 67 µM and > 100 µM in the assay with SK-OV-3 ovarian; 37.4 µM and 36.5 µM with RXF 393 renal; 23.9 µM and 34.8 µM with LOX IMVI melanoma. Further, the TGI in the assay with MOLT-4 leukemia is 61.4 µM and 72.6 µM; in the assay with RPMI-8226 leukemia, 31.6 µM and 81.1 µM; in the assay on ACHN renal, 28.9 µM and 31 µM; in the assay on PC-3 prostate it was 47.3 µM and 41.3 µM. Moreover, in the assay with RPMI-8226 leukemia, the GI50 was 5.71 µM and 15.9 µM.
`Nc1nc(-c2ccccn2)c(-c2ccc3ncccc3n2)s1`: the GI50 with EKVX NSCLC, with 786-0 renal, with SK-MEL-5 melanoma, with SK-OV-3 ovarian, with RXF 393 renal and in the assay with LOX IMVI melanoma was over 25 µM each time. Also, the GI50 in the assay on MOLT-4 leukemia, in the assay on RPMI-8226 leukemia, in the assay on ACHN renal and in the assay with PC-3 prostate was over 25 µM in each case. For the same compound, the TGI in the assay with EKVX NSCLC, in the assay with 786-0 renal, in the assay with SK-MEL-5 melanoma, with SK-OV-3 ovarian, in the assay on RXF 393 renal and in the assay with LOX IMVI melanoma was over 25 µM throughout. Besides, the TGI in the assay with MOLT-4 leukemia, in the assay with RPMI-8226 leukemia, in the assay on ACHN renal and with PC-3 prostate was over 25 µM each time.
Take `CC(C)OC(=O)OCOP(=O)(OCOC(=O)OC(C)C)C1CCCN(O)C1=O` (stereo unspecified): the GI50 with EKVX NSCLC was 3.03 µM; with 786-0 renal, 0.407 µM; in the assay on SK-MEL-5 melanoma it was 1.3 µM; in the assay on SK-OV-3 ovarian, 1.84 µM; in the assay with RXF 393 renal, 0.316 µM; in the assay with LOX IMVI melanoma, 2.3 µM. The GI50 in the assay on MOLT-4 leukemia was 1.34 µM; in the assay on RPMI-8226 leukemia, 0.737 µM; with ACHN renal, 0.888 µM; with PC-3 prostate, 7.55 µM. Besides, the TGI with EKVX NSCLC is over 100 µM; in the assay with 786-0 renal, over 100 µM; with SK-MEL-5 melanoma it was 7.3 µM; with SK-OV-3 ovarian it was over 100 µM; with RXF 393 renal it was 2.88 µM; with LOX IMVI melanoma it was over 100 µM. Further, the TGI is over 100 µM with MOLT-4 leukemia, 14.5 µM with RPMI-8226 leukemia, over 100 µM in the assay on ACHN renal and over 100 µM in the assay on PC-3 prostate.
Consider `CCN(CC)c1ccc(C=C2C(=O)NC(=S)NC2=O)cc1`, for which the GI50 in the assay with EKVX NSCLC is 14 µM; with 786-0 renal, 2.27 µM; with SK-MEL-5 melanoma, 9.25 µM; in the assay with SK-OV-3 ovarian it was 14.8 µM; in the assay on RXF 393 renal, 2.07 µM; in the assay with LOX IMVI melanoma it was 2.12 µM. Besides, the GI50 in the assay on MOLT-4 leukemia was 3.16 µM; in the assay with RPMI-8226 leukemia it was 2.15 µM; in the assay with ACHN renal, 5.82 µM; with PC-3 prostate, 2.75 µM. For the same compound, the TGI in the assay with EKVX NSCLC amounted to 28.6 µM; with 786-0 renal, 4.08 µM; with SK-MEL-5 melanoma, 21.5 µM; in the assay on SK-OV-3 ovarian, 28 µM; in the assay on RXF 393 renal it was 3.72 µM; in the assay on LOX IMVI melanoma it was 4.57 µM. For the same compound, the TGI was 10.4 µM in the assay with MOLT-4 leukemia, 5.49 µM with RPMI-8226 leukemia, 18.5 µM in the assay with ACHN renal and 7.96 µM with PC-3 prostate.
In the case of `CCN(CC)CCCC(C)Nc1ccnc2cc(OC)ccc12` (stereo unspecified), the GI50 in the assay with EKVX NSCLC is 44.9 µM; in the assay on 786-0 renal it was 17.1 µM; with SK-MEL-5 melanoma, 18.3 µM; with SK-OV-3 ovarian, 24.9 µM; in the assay on RXF 393 renal, 15.7 µM; in the assay on LOX IMVI melanoma it was 29.5 µM. The GI50 in the assay on MOLT-4 leukemia is 25.9 µM; in the assay on RPMI-8226 leukemia it was 18.6 µM; in the assay on ACHN renal, 39.4 µM; in the assay with PC-3 prostate, 5.77 µM. The TGI was over 100 µM with EKVX NSCLC; 35.9 µM in the assay on 786-0 renal; 32.8 µM with SK-MEL-5 melanoma; 52.3 µM with SK-OV-3 ovarian; 35.5 µM in the assay with RXF 393 renal; over 100 µM with LOX IMVI melanoma. For the same compound, the TGI with MOLT-4 leukemia is 74.5 µM; in the assay with RPMI-8226 leukemia, 42 µM; in the assay with ACHN renal it was over 100 µM; with PC-3 prostate it was 21.8 µM.
Turning to `NC1=Nc2cc(OCCCCN3Cc4ccccc4C3)c(OCC3CC3)cc2C12CCCC2`, the GI50 in the assay with EKVX NSCLC was 2.77 µM; in the assay on 786-0 renal it was 1.54 µM; in the assay on SK-MEL-5 melanoma, 1.71 µM; with SK-OV-3 ovarian, 1.89 µM; in the assay on RXF 393 renal, 1.22 µM; with LOX IMVI melanoma, 1.69 µM. Besides, the GI50 was 1.88 µM with MOLT-4 leukemia, 1.53 µM in the assay on RPMI-8226 leukemia, 1.71 µM with ACHN renal and 1.69 µM with PC-3 prostate. Also, the TGI in the assay on EKVX NSCLC came out at 14.5 µM; with 786-0 renal it was 3.03 µM; in the assay on SK-MEL-5 melanoma, 3.1 µM; with SK-OV-3 ovarian, 3.9 µM; in the assay on RXF 393 renal, 2.6 µM; with LOX IMVI melanoma, 3.09 µM. In addition, the TGI is 5.04 µM in the assay on MOLT-4 leukemia, 4.02 µM with RPMI-8226 leukemia, 3.24 µM in the assay on ACHN renal and 7.81 µM in the assay with PC-3 prostate.
In the case of `CC1(C)CC[C@]2(C(=O)O)CC[C@]3(C)C(=CC[C@@H]4[C@@]5(C)C/C(=C/c6cccnc6)[C@H](O)C(C)(C)[C@@H]5CC[C@]43C)[C@@H]2C1`, the GI50 with EKVX NSCLC was 6.02 µM; in the assay on 786-0 renal it was 11.2 µM; in the assay with SK-MEL-5 melanoma, 6.71 µM; in the assay with SK-OV-3 ovarian it was 19 µM; with RXF 393 renal, 7.28 µM; with LOX IMVI melanoma it was 8.28 µM. Also, the GI50 was 2.63 µM in the assay on MOLT-4 leukemia, 3.02 µM in the assay with RPMI-8226 leukemia, 6.11 µM with ACHN renal and 2.66 µM in the assay on PC-3 prostate. For the same compound, the TGI in the assay on EKVX NSCLC was 56.6 µM; in the assay with 786-0 renal it was over 100 µM; in the assay on SK-MEL-5 melanoma it was 23.2 µM; in the assay on SK-OV-3 ovarian, over 100 µM; with RXF 393 renal, 36.6 µM; in the assay on LOX IMVI melanoma, 24.2 µM. The TGI was 26 µM in the assay with MOLT-4 leukemia, 18.8 µM with RPMI-8226 leukemia, over 100 µM in the assay on ACHN renal and 72.4 µM in the assay with PC-3 prostate.
On to `N#CSc1c[nH]c2cccc(/C=C/C(=O)/C=C(O)/C=C/c3cccc4[nH]cc(SC#N)c34)c12`, for which the GI50 in the assay with EKVX NSCLC was 0.285 µM; in the assay with 786-0 renal, 0.684 µM; in the assay on SK-MEL-5 melanoma it was 0.467 µM; in the assay on SK-OV-3 ovarian, 1.32 µM; with RXF 393 renal, 0.326 µM; in the assay with LOX IMVI melanoma, 0.148 µM. Also, the GI50 is 0.322 µM with MOLT-4 leukemia, 0.128 µM in the assay on RPMI-8226 leukemia, 0.351 µM in the assay with ACHN renal and 0.136 µM in the assay on PC-3 prostate. Further, the TGI in the assay with EKVX NSCLC amounted to 2.13 µM; in the assay on 786-0 renal it was 2.14 µM; with SK-MEL-5 melanoma it was 0.982 µM; in the assay with SK-OV-3 ovarian, 5.23 µM; in the assay with RXF 393 renal, 1 µM; in the assay with LOX IMVI melanoma, 0.547 µM. Also, the TGI turned out to be 1.48 µM in the assay with MOLT-4 leukemia, 0.9 µM with RPMI-8226 leukemia, 1.04 µM with ACHN renal and 1.77 µM in the assay with PC-3 prostate.
In the case of `COc1ccc2c(c1)OCC1c3cc(OC)ccc3OC21` (stereo unspecified), the GI50 in the assay on EKVX NSCLC is 32.6 µM; in the assay with 786-0 renal it was over 100 µM; in the assay on SK-MEL-5 melanoma, 28.4 µM; in the assay on SK-OV-3 ovarian it was over 100 µM; in the assay on RXF 393 renal, 58 µM; in the assay on LOX IMVI melanoma, 45.9 µM. Besides, the GI50 is 8.94 µM in the assay with MOLT-4 leukemia, 21.5 µM in the assay on RPMI-8226 leukemia, 53.1 µM in the assay on ACHN renal and 91.2 µM in the assay with PC-3 prostate. Further, the TGI in the assay on EKVX NSCLC is over 100 µM; in the assay with 786-0 renal it was over 100 µM; in the assay with SK-MEL-5 melanoma, 86.1 µM; with SK-OV-3 ovarian, over 100 µM; with RXF 393 renal, over 100 µM; with LOX IMVI melanoma, over 100 µM. The TGI was 61.1 µM in the assay on MOLT-4 leukemia, over 100 µM in the assay on RPMI-8226 leukemia, over 100 µM in the assay with ACHN renal and over 100 µM in the assay on PC-3 prostate.
